Measurements published in patent US20200054653A1, “ACEFAPC FOR THE TREATMENT OF ACETYLCHOLINE-DEPENDENT DISEASES” (LIPTHER, priority 2017, published 2020).
Where two headings read alike, the source gives them in different places.

How the values were obtained:
[1] = system: brain lesions after ischemic stroke; details: injected into rats after ischemic stroke; cited from earlier work
[2] = rat, cited from earlier work
[3] = target: microbial (Streptomyces chromofuscus) phospholipase D (Streptomyces chromofuscus, UniProt Q8KRU5); assay: Acellular incubation of AceFaPC with phospholipase D, acetylcholine detected by mass spectrometry; format: biochemical; details: Tris-HCl pH 8, one hour at 37° C.
microbial (Streptomyces chromofuscus) phospholipase D, sequence (Q8KRU5 47-556): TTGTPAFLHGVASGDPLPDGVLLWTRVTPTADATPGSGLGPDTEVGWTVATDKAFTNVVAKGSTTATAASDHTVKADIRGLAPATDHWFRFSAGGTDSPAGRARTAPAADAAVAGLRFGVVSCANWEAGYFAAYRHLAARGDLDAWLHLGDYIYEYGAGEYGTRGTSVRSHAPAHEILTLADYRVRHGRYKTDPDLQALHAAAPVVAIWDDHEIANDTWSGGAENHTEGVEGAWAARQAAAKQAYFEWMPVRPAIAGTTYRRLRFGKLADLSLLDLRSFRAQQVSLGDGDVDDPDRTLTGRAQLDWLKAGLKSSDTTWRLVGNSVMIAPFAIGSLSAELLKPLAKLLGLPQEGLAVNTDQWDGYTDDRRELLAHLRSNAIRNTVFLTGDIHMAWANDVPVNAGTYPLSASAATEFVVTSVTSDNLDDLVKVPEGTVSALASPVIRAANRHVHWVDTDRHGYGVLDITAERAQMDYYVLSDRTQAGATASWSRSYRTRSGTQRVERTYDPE
Experimental: Acellular incubation of AceFaPC was performed in the presence of a microbial (Streptomyces chromofuscus) phospholipase D in a Tris-HCl pH 8 (brain pH) buffer for one hour at 37° C. Following incubation, phospholipase D was destroyed by adding ethanol. After centrifugation, the aqueous ethanolic mixture was separated and evaporated to dryness. The residue was dissolved in the mixture 95% acetonitrile/5% ammonium formate and then filtered by centrifugation. Acetylcholine was detected in the solution by mass spectrometry. Acetylcholine was detected on the basis of both its molecular mass (146) and that of its main fragmentation product (87: majority ion corresponding to the radical CH3—COO—CH2—CH2—) (FIG. 2).
In these acellular experiments, two substrates were used considering the lowest unsaturation for acyl in the sn-2 position, namely the oleoyl radical (R2—COO—, FIG. 1): AceOIPC and the highest with the docosahexaenoyl radical: AceDoPC®. For AceOIPC, approximately 5% of the released choline was converted to acetylcholine. For AceDoPC®, this conversion reached 36%. The reasons for this difference are unknown at this stage of the experiment. […]

[4] = system: reconstituted blood-brain barrier; details: compared with non-esterified DHA or PC-DHA; cited from earlier work

| SMILES | spread of brain lesions [1] | radioactivity of AceDoPC in brain, % of the total injected ([2]; after 1 hour) | radioactivity of AceDoPC in brain, % of the total injected ([2]; after 24 hours) | radioactivity of AceDoPC in brain, % of the total injected ([2]; after 48 hours) | released choline converted to acetylcholine [3] | passage of a reconstituted blood-brain barrier [4] |
| --- | --- | --- | --- | --- | --- | --- |
| CC/C=C\C/C=C\C/C=C\C/C=C\C/C=C\C/C=C\CCC(=O)O[C@H](COC(C)=O)COP(=O)([O-])OCC[N+](C)(C)C [AceDoPC, 1-acetyl,2-docosahexaenoyl-phosphatidylcholine] | prevented the spread of brain lesions | 80% | 30% | 10% | 36% | promoted |
| CCCCCCCCC=CCCCCCCCC(=O)OC(COC(C)=O)COP(=O)([O-])OCC[N+](C)(C)C (stereo not shown) [AceOIPC] | – | – | – | – | approximately 5% | – |
